Assays:
[1] = Viscosity by cone-plate rotor viscometer (25° C. or 60° C.); type: physicochemical; conditions: monomer per se
Description: Note that, a viscosity of the low viscous monofunctional monomer per se is preferably 3 mPa·s or less at 25° C., more preferably about 1 mPa·s or less at 25° C. The viscosity can be measured by means of a cone-plate rotor viscometer, VISCOMETER TV-22, manufactured by Toki Sangyo Co., Ltd., using a corn rotor (1° 34′×R24) at the rotational speed of 50 rpm, with setting the temperature of constant-temperature circulating water to 25° C.
The viscosity is measured by means of a cone-plate rotor viscometer, VISCOMETER TV-22, manufactured by Toki Sangyo Co., Ltd., using a corn rotor (1° 34′×R24) at the rotational speed of 50 rpm, with setting the temperature of constant-temperature circulating water to 25° C. or 60° C. As for the adjustment of the temperature of the circulating water, VISCOMATE VM-150III is used. […]
(A): t-butylmethacrylate, “Acryester TB” manufactured by MITSUBISHI RAYON CO., LTD. (negative), evaluated with the literature (test method: maximization method, viscosity at 25° C.: 0.9 mPa·s). The viscosity was measured by means of a cone-plate rotor viscometer, VISCOMETER TV-22, manufactured by Toki Sangyo Co., Ltd., using a corn rotor (1° 34′×R24) at the rotational speed of 50 rpm, with setting the temperature of constant-temperature circulating water to 25° C.

[2] = in vivo; cited from earlier work
female mice = experiment: Skin sensitization test, local lymph node assay (LLNA), SI value; type: in vivo; conditions: test substance 50.0 w/v % in acetone:olive oil 4:1, applied to both auricles once a day for three days
Excerpt: (1) A compound having a Stimulation Index (SI value) of less than 3, where the Stimulation Index indicates the level of sensitization as measured by a skin sensitization test based on the LLNA (Local Lymph Node Assay).
Regarding the above (1), the compound having a SI value of less than 3 is considered as being negative for skin sensitization as described in literatures, for example, “Functional Material” (Kino Zairyou) September, 2005, Vol. 25, No. 9, p. 55. The lower Si value means lower skin sensitization. In the present invention, therefore, a photopolymerizable monomer having lower SI value is preferably used. The SI value is preferably less than 3, more preferably 2 or less, and even more preferably 1.6 or less.
According to the skin sensitization test of local lymph node assay (LLNA), the SI value was measured in the following manner. […]
Based on the body weights measured 2 days before the initiation of sensitization, they were categorized into 2 groups (4 mice/group) by the body weight stratified random sampling method so that the body weight of each individual was within plus or minus 20%. […]
About 24 hours after the administration of BrdU, the used animals were allowed to undergo euthanasia, and their auricular lymph nodes were sampled. […] Also, the average of the weights of the auricular lymph nodes and the standard error thereof were calculated for each group. […]

Row | viscosity at 25° C. [1] [mPa·s] | Compound | SI value (Stimulation Index) in the LLNA test (female mice) | also measured
1 | 1 | C=C(C)C(=O)OCCCCC [n-pentyl methacrylate] | – | –
2 | 0.9 | C=C(C)C(=O)OC(C)(C)C [t-butylmethacrylate] | – | –
3 | – | O=C(c1ccccc1)C1(O)CCCCC1 [1-hydroxy-cyclohexylphenylketone] | – | Skin sensitization, evaluated with MSDS [2]: no
4 | – | C=C(C)C(=O)OCC(CO)OC(=O)C(=C)C (centres unmarked) [glycerol dimethacrylate] | 1.2 | –
5 | – | tricyclodecane dimethanol dimethacrylate | 1.3 | –

Source: patent US20170073445A1, “PHOTOPOLYMERIZABLE COMPOSITION, PHOTOPOLYMERIZABLE INK, COMPOSITION CONTAINER, IMAGE OR CURED PRODUCT FORMING METHOD, IMAGE OR CURED PRODUCT FORMING DEVICE, AND IMAGE OF CURED PRODUCT” (priority 2014, published 2017)
